From patent US9737495B2, “Process for obtaining purified pterostilbene and methods of use thereof” (Indus Biotech Private Limited, priority 2009, dated 2017)
Like-named read-outs stand apart in the source and are kept apart here.

Legend:
SIRT1 = target: T1, SIRT1 (Homo sapiens, UniProt Q96EB6); experiment: SIRT1 inhibition, Fluor de Lys fluorimetric deacetylase assay (in vitro); assay type: biochemical; conditions: read-out: IC50 for SIRT1 (converted)
T1 sequence (Q96EB6 1-747): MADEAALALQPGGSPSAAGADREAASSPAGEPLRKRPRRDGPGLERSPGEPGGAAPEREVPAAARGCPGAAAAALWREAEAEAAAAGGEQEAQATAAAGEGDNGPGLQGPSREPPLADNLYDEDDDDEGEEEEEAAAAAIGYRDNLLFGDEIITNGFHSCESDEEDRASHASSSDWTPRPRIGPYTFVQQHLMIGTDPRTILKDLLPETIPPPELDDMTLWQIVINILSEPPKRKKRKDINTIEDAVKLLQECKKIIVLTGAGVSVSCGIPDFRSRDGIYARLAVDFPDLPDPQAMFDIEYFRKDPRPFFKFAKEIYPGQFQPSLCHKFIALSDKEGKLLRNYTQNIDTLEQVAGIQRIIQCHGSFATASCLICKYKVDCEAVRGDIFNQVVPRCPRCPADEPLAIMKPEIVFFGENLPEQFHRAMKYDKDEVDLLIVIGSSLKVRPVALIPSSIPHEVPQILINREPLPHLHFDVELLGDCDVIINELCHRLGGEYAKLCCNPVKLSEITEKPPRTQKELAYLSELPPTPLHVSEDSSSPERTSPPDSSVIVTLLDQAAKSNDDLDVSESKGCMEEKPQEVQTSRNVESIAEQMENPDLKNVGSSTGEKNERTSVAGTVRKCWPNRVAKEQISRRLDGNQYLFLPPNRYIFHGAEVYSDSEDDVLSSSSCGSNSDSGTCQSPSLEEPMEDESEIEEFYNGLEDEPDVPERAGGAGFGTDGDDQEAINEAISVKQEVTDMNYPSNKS

[1] = target: T2, Human recombinant deacetylase sirtuin SIRT2 (Homo sapiens, UniProt Q8IXJ6); experiment: SIRT2 inhibition, Fluor de Lys fluorimetric deacetylase assay (in vitro); assay type: biochemical; conditions: read-out: IC50 for SIRT2 (converted)
T2 construct: host or cells: E. coli
T2 sequence (Q8IXJ6 1-389): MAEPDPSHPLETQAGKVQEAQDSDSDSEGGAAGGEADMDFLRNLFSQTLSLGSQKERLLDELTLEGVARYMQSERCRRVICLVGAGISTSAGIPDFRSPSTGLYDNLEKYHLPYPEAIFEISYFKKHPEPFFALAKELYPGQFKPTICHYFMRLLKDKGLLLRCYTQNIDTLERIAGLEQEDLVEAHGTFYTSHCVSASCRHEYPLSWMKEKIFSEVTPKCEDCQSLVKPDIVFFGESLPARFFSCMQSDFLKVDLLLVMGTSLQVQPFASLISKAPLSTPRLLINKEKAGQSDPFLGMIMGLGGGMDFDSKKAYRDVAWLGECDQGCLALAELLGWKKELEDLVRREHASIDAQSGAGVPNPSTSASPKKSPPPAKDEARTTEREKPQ
Method: (§1) Human recombinant deacetylase sirtuin SIRT2 expressed in E. coli was used. Test compound (1, 10, 100 and 1000 μg/ml conc.) and/or vehicle was pre-incubated with 2 μg/ml enzyme in Tris-HCl buffer pH 8.0 for 15 minutes at 37° C. The reaction is initiated by addition of 25 μM Fluor de Lys-SIRT1 and 150 μM NAD for another 120 minute incubation period and is terminated by further addition of Fluor de Lys Developer. Determination of the amount of de-acetate Fluor de Lys formed is read spectrofluorimetrically with excitation at 360 nm and emission at 465 nm. The concentration-response (% inhibition) curve was plotted and IC50 was calculated.
as §1, with “37 °C.” for “37° C.”

3-NP induced HD in rats [2] = experiment: 3-NP induced HD in rats: body weight; assay type: in vivo, Wistar rats; conditions: for % difference of body weights: 30 mg/kg p.o. daily complexed with cyclodextrin + 3-NPA 20 mg/kg/day i.p., n=6
Method: (§2) 3-NP (20 mg/kg i.p., daily in 2 divided doses) was administered to all the Wistar rats of weight range 250-300 g. in two divided doses at 12 hr interval for 9-11 days until disease is induced (acutely ill). It took 12 days to completely induce the disease symptoms. 3-NP was diluted with water and the pH will be adjusted upto 7.4 with NaOH. It was administered intraperitoneally (i.p.) at a dose of 10 mg/kg every 12 hrs (8:00 am and 8:00 pm) for 12 days (total daily dose 20 mg/kg). The observations were done on day 0, 7, 9, 11 and 13. The test compound was administered for the same period p.o. (per oral) one hour before 3-NP injection (at 7:00 AM daily) at dose of 30 mg/kg, p.o. The experimental groups were as follows: 1) Healthy Control: No treatment 2) HD control (3-NP+cyclodextrin) 3) TEST COMPOUND (30 mg/kg, p.o. daily complexed with cyclodextrin) treated.

3-NP induced HD in rats [3] = experiment: 3-NP induced HD in rats: neurological behavioral grading; assay type: in vivo, Wistar rats; conditions: for neurological behavioral changes (neurological problems score, grades 0-5) / neurological score, % change from cyclo + 3-NPA treatment: 30 mg/kg p.o. + 3-NPA
Method: as §2
Behavioral changes were recorded daily, and immediately before sacrifice, graded according to the neurological scale described. A total of 6 grades included: • Grade 0: normal behavior; • Grade 1: general slowness in movement due to mild hind-limb impairment; • Grade 2: prominent gait abnormality with poor coordination; • Grade 3: nearly complete hind-limb paralysis; • Grade 4: incapability to move due to four-limb impairment; and • Grade 5: recumbence.

3-NP induced HD in rats [4] = experiment: 3-NP induced HD in rats: squares crossed in open field test; assay type: in vivo, Wistar rats; conditions: 30 mg/kg p.o. + 3-NPA
Method: as §2

3-NP induced HD in rats [5] = experiment: 3-NP induced HD in rats: brain wet weight; assay type: in vivo, Wistar rats; conditions: Day 13, 30 mg/kg p.o. + 3-NPA
Method: as §2
On day 13, the brains of the rats were dissected out and cleaned. The wet weight of the brains were recorded for each rat. The results are also graphically represented in FIG. 3
On day 13, the brains of the rats were dissected out and cleaned. The wet weight of the brains were recorded for each rat.

[6] = test conc. 1-1000 μg/ml, pH 8.0, 37° C.

IC50 (SIRT1; conversion of the μg/ml value): 47 µM | IC50 (SIRT1; [6]): 47.2 µM | IC50 ([1]; conversion of the μg/ml value): 45 µM | IC50 [1, 6]: 45.6 µM
SMILES: COc1cc(/C=C/c2ccc(O)cc2)cc(OC)c1 [Test compound, pterostilbene]
% difference of body weights (3-NP induced HD in rats [2]; Day 7): 1.90 ± 3.72% | % difference of body weights (3-NP induced HD in rats [2]; Day 9): −0.82 ± 3.77% | % difference of body weights (3-NP induced HD in rats [2]; Day 11): −2.53 ± 3.70% | % difference of body weights (3-NP induced HD in rats [2]; Day 13): −6.08 ± 4.10% | reduction in body weight (3-NP induced HD in rats [2]; after 11 days, 30 mg/kg p.o. + 3-NP (3-NP alone 12.48%)): 2.53% | neurological behavioral changes (neurological problems score, grades 0-5) (3-NP induced HD in rats [3]; Day 7): 0 | neurological behavioral changes (neurological problems score, grades 0-5) (3-NP induced HD in rats [3]; Day 9): 1 | neurological score, % change from cyclo + 3-NPA treatment (3-NP induced HD in rats [3]; Day 9): −83.33% | neurological behavioral changes (neurological problems score, grades 0-5) (3-NP induced HD in rats [3]; Day 11): 7 | neurological score, % change from cyclo + 3-NPA treatment (3-NP induced HD in rats [3]; Day 11): −30% | neurological behavioral changes (neurological problems score, grades 0-5) (3-NP induced HD in rats [3]; Day 13 (after 12-day treatment)): 13 | neurological score, % change from cyclo + 3-NPA treatment (3-NP induced HD in rats [3]; Day 13): −23.52% | reduction of neurological problems as compared to vehicle (cyclo+3-NPA) group (3-NP induced HD in rats [3]; after 12-day treatment (Day 13), 30 mg/kg p.o.): 23.52% | number of squares crossed in open field test (3-NP induced HD in rats [4]; Day 7): 144.17 ± 7.47 | number of squares crossed in open field test (3-NP induced HD in rats [4]; Day 9): 125.67 ± 6.22 | number of squares crossed in open field test (3-NP induced HD in rats [4]; Day 11): 109.00 ± 13.72 | number of squares crossed in open field test (3-NP induced HD in rats [4]; Day 13): 77.83 ± 6.92 | Brain weight (g)-Mean ± SEM (3-NP induced HD in rats [5]): 1.605 ± 0.0659 g
